According to PubChem BioAssay AID179 (DTP/NCI, 2004):
Active and inactive are the calls of the source.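 Rule for the calls: active = compounds giving half or more protection of infected cells from virus-caused growth loss, again on retest; inactive = the rest.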

System: CEM cells HIV-1 protection, formazan growth assay
Assay: NCI AIDS Antiviral Assay
Conditions: for IC50: measured here: growth of uninfected CEM cells
Procedure, shortened: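 Screen of anti-HIV-1 activity in human CEM cells using a formazan-based growth measurement at five drug concentrations. Hits with 50% or greater protection were repeated, and confirmation required reproducible complete protection.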

Compound	EC50 [µM]	IC50 [µM]	outcome
COc1cc2c(c(OC)c1OC)CCC1(C)C(=O)NN=C21 (stereo unspecified)	> 871	275	
OCCN1CCN2C=C(C3CCCC4N(CCO)CCN34)CCC21 (stereo unspecified)	> 741	33.9	
Cc1ccc(NC(=O)CCC/C(CC(=O)c2ccc(Br)cc2)=N/NC(=O)CC#N)cc1	> 102	> 102	
CC(=O)c1ccc(NC(=O)C(=O)C(C(=O)c2ccc(Cl)c(Cl)c2)C2OC(=O)c3ccccc32)cc1 (stereo unspecified)	> 87.1	12.6	
Cc1cccc(/C=N/N=C(\N)NO)n1	> 692	141	
N#Cc1c2c([nH]c(=O)c1C#N)CCCC2	> 200	> 200	
CC(C)(C)c1ccc(-c2nc3ccc([N+](=O)[O-])cc3c(=O)o2)cc1	> 200	8.91	
O=C(CC(c1ccccc1)C(Sc1ccccc1)(Sc1ccccc1)Sc1ccccc1)c1ccccc1 (stereo unspecified)	> 100	> 100	
O=c1c2ccccc2oc2ccccc12	> 26.3	> 26.3	
COC1O[C@@H]2CCN3C(=O)[C@@H](OC(=O)c4ccc([N+](=O)[O-])cc4)[C@H]1C23 (stereo partly specified)	> 200	> 200	
Cc1ccc2c(n1)C(N1CCCC1)=CC(=O)C2=O			inactive
COc1ccc(C2OCCN2C)cc1 (stereo unspecified)	> 200	> 200	
COC(=O)C1(SC)C2CCC3C2CCC31 (stereo unspecified)	> 200	> 200	
COc1ccc(C2c3cn[nH]c3CC3CCCCC32)cc1 (stereo unspecified)	> 200	34.7	
CC(C)c1ccc(C(c2c(O)c3ccccc3oc2=O)c2c(O)c3ccccc3oc2=O)cc1	> 200	30.2	
Cc1cc(C#N)c(=S)n(C2OC(CO)C(O)C(O)C2O)c1C (stereo unspecified)	> 200	> 200	
COc1ccc2[nH]c(S(=O)(=O)N3CC(CCl)c4ccc(N)cc43)cc2c1 (stereo unspecified)	> 0.2	0.102	
c1cc[c]([Sn]([O]c2cccc3cccnc23)([c]2ccccc2)[c]2ccccc2)cc1			inactive
CN(C)c1nc(NC23CC4CC(CC(C4)C2)C3)nc(N(C)C)n1	> 200	5.01	
Cc1cc(=O)[nH]c(Sc2ccc([N+](=O)[O-])cc2[N+](=O)[O-])n1	> 200	6.31	
O=c1[nH]c2cc(Cl)ccc2n1C1CCN(CCCC(c2ccc(F)cc2)c2ccc(F)cc2)CC1	> 200	18.6	
COC(=O)/C=C(\C)CCC1SC1(C)C (stereo unspecified)	> 100	> 100	

Compound	EC50 [µM]	IC50 [µM]	outcome
CCOC(=O)C(=[N+]=[N-])C(=O)CSC#N	> 200	10.5	
O=C1CN(CC2=CC3(CC2)CCC2=C3CCCC2=O)C(=O)N1 (stereo unspecified)	> 417	> 417	
CNS(=O)(=O)c1c(NC=O)ncn1C	> 1150	> 1150	
C=C(CO[Si](C)(C)C(C)(C)C)C(C)=O			inactive
Cc1cc(NC(=O)Nc2ccc(N=Nc3cc(S(=O)(=O)O)c4cccc(S(=O)(=O)O)c4c3)c(C)c2)ccc1N=Nc1cc(S(=O)(=O)O)c2cccc(S(=O)(=O)O)c2c1	20	> 100	
Cc1cccc(C)c1NC(=O)C(=O)C1C(=O)N(c2ccccc2)N=C1N (stereo unspecified)	> 708	> 708	
CC12OOC(c3ccccc31)c1c2ccc2ccccc12 (stereo unspecified)			inactive
COC(=O)C(C)(Cc1ccc2c(c1)nnn2C(C)=O)NC(C)=O (stereo unspecified)	> 200	> 200	
c1ccc(C2=NC3OC2c2ccccc23)cc1 (stereo unspecified)	> 200	> 200	
NC(=O)c1ccc(NC=O)cc1	> 1510	977	
COc1ccc2oc(=O)c(-c3csc(C)n3)cc2c1	> 151	138	
CN1CCN(C(=S)N2CCN(C)CC2)CC1	> 2	1.91	
COc1cc(-c2cc(=O)c3ccc(O)cc3o2)cc(OC)c1OC	> 200	> 200	
CSC(SC)=C(C#N)C(N)=S	> 200	123	
COC(=O)C1(C(=O)OC)CC2=C(S(=O)(=O)c3ccccc3)C[C@H](C#N)[C@H]2C1	> 200	58.9	
COc1ccc(Cc2c3cc(O)c(=O)cc-3ccn2C)cc1	> 33.9	6.46	
O=C1CCCN1CCCN=c1cc2n(-c3ccc(Cl)cc3)c3ccccc3nc-2cc1Nc1ccc(Cl)cc1			inactive
C[C@@]12CCC[C@H]1[C@@H]1CC=C3C[C@@H](S)CC[C@]3(C)[C@H]1CC2	> 200	66.1	
CC(=O)Nc1ncc([N+](=O)[O-])s1	> 200	> 200	
NC(N)=NC(CSSCC(N=C(N)N)C(=O)O)C(=O)O (stereo unspecified)	> 200	> 200	
CC(C)(C)c1cc(C2COC(=O)COCCOCC(=O)OCCOCCO2)cc(C(C)(C)C)c1O (stereo unspecified)	> 200	178	
C1CNCCNCCN1	> 200	> 200	

Compound	EC50 [µM]	IC50 [µM]	outcome
COC(=O)C(C(=O)C(=O)Nc1ccc(C)cc1)c1nc2ccc([N+](=O)[O-])cc2[nH]c1=O (stereo unspecified)	> 44.7	> 44.7	
CCCCCCC1OC(C(=O)OCCCC)C(C(=O)OCCCC)O1 (stereo unspecified)	> 200	> 200	
O=c1[nH]c(=O)n(Cc2ccccc2)cc1B(O)O	> 200	> 200	
COc1ccccc1NCC(=O)Nn1c(C)nc2ccc(S(=O)(=O)Nc3ccccc3OC)cc2c1=O	> 200	148	
O=C(Nc1ccc(Cl)cc1)C1C(=O)C(=O)N(c2ccc(Cl)cc2)C1=O (stereo unspecified)			inactive
COC(=O)c1ccccc1C1CN=NC12Cc1c(ccc(C)c1C)C2=O (stereo unspecified)	> 151	> 151	
COc1cc(/C=C/C(=O)OCC23CC[C@@]4(C(=O)O)CCC(C)[C@H](C)C4C2=CCC2[C@@]4(C)CC[C@H](O)C(C)(C)C4CC[C@]23C)ccc1O (stereo partly specified)	> 200	1.05	
C#CCCOC(=O)c1ccccc1OC(C)=O	> 200	> 200	
COC(=O)C(C)(NC(=O)C(CC(=O)OC(C)(C)C)NC(=O)OC(C)(C)C)c1ccccc1 (stereo unspecified)	> 200	> 100	
Cn1cc(C(=O)c2ccccc2)c2ccccc2c1=O			inactive
N=c1nnc2ccc(Cl)cc2n1O	> 200	33.1	
[N-]=[N+]=NC1C2CC3C4CC5CC3[C@H](C2)C(C5)C41 (stereo partly specified)	> 81.3	> 81.3	
CSc1c(C#N)c2n(c3ccccc13)c1ccccc1[n+]2C	> 100	6.76	
CC1=CC(C(=O)O)P(C)(=O)C1 (stereo unspecified)			inactive
COc1cccc([B-]23OCC[N+]2(CNC(=O)C2=C(O)C4(O)C(=O)C5=C(O)c6c(O)cccc6C(C)(O)C5CC4C(N(C)C)C2=O)CCO3)c1 (stereo unspecified)	> 38	> 38	
Cc1ccc(NC(Nc2ccc(C)cc2C)=C(/C=C(\Cl)[N+](=O)[O-])[N+](=O)[O-])c(C)c1	> 200	2.51	
Cc1nnc2n1-c1ccccc1C(=S)N1CSCC21 (stereo unspecified)	> 200	> 200	
COc1ccc2c3c1C(=O)CCCC3CO2 (stereo unspecified)			inactive
c1ccc(CCN(CCc2ccccn2)CCc2ccccn2)nc1	> 200	> 100	
C(/COc1cccnc1)=N\NC1=NCCN1	> 832	186	
Cn1cnc(N)c1S(N)(=O)=O	> 1410	> 1410	
Cc1cc(N=Nc2ccc(C(=O)Nc3ccc4cc(S(=O)(=O)O)ccc4c3)cc2)c(N)c(N=Nc2ccc(N=Nc3ccc(O)c(C(=O)O)c3)cc2)c1N	14.8	> 100	

Compound	EC50 [µM]	IC50 [µM]	outcome
O=[N+]([O-])c1ccc2oc(=Nc3ccccc3)c(Nc3ccccc3)nc2c1	> 200	166	
Cc1ccc(S(=O)(=O)c2c(C)cc(C)cc2C)cc1	> 200	12.6	
O=c1c2ccccc2nc(-c2ccccc2)n1NC(=S)Nc1ccc(Cl)cc1[N+](=O)[O-]	> 15.8	> 15.8	
C=CC[C@H](C[C@H](C[C@H](C[C@H](C[C@H](C[C@H](C[C@H](C[C@H](C[C@H](C[C@H](CCCCC)OC)OC)OC)OC)OC)OC)OC)OC)OC)OC	> 200	115	
NCCCCCS(=O)(=O)O	> 9330	> 9330	
CSc1c(C(=O)Nc2ccccc2)c(N)n(N)c(=O)c1C#N	55	> 200	
CCNc1cc2oc(=O)cc(C(F)(F)F)c2cc1C	> 13.8	> 13.8	
N#Cc1c(-c2ccco2)c2c(n(C3OC(CO)C(O)C(O)C3O)c1=S)CCCC2 (stereo unspecified)	> 200	110	
CCOC(=O)C(/C=N\C(=S)Nc1c(CC)cccc1C(C)(C)C)=C(/O)c1ccccc1	> 200	> 200	
COC(=O)[C@@H]1C[C@]2(CC=C(C)C)c3ccccc3N(S(=O)(=O)c3ccccc3)[C@@H]2N1C(=O)OC	> 200	20	
O=C(NP1(=O)NCc2ccccc2CN1)OC1CCCCC1	> 288	> 288	
CCCCCCCCCCCCCCCCOCC(COP(=O)([O-])OCC[n+]1ccc(N(C)C)cc1)OCC (stereo unspecified)	> 200	66.1	
CC1CCC(=O)C(C(=O)CC2CC(=O)NC(=O)C2)C1 (stereo unspecified)	> 200	> 200	
COc1ccc(Nc2nc3ccc(C(F)(F)F)cc3nc2-c2ccccc2)cc1OC	> 17	> 17	
COC(=O)[C@H](Cc1ccccc1)NC(=O)N(CCC#N)CCN(C(=O)N[C@@H](Cc1ccccc1)C(=O)OC)c1ccccc1	> 200	29.5	
O=C1CCC(=O)N1n1c(Cc2ccc(Cl)cc2)n[nH]c1=O	> 200	> 200	
CSC1(Cc2ccccn2)C(=O)Nc2cccc([N+](=O)[O-])c21 (stereo unspecified)	> 200	31.6	
COc1ccc(C(=O)/C=C/c2cc(C(C)(C)C)c(O)c(C(C)(C)C)c2)cc1	> 7.41	> 7.41	
COc1cc(-c2ccc(NC(=O)SCCC(=O)O)cc2OC)ccc1NC(=O)SCCC(=O)O			inactive
O=C1c2sccc2-c2cccc3cccc1c23	> 63.1	30.9	
c1ccc(C2=C(c3ccccc3)CSSC2)cc1	> 69.2	> 69.2	
COc1ccc(C(C(N)=O)N2CCCC2)cc1 (stereo unspecified)	> 200	> 200	
